The values that follow are results of earlier work, collected in patent US20090304794A1, “CONTROLLED RELEASE FORMULATIONS OF PRAMIPEXOLE” (Supernus Pharmaceuticals, Inc., priority 2008, published 2009).

Like-named read-outs stand apart in the source and are kept apart here.

Consider `CCCN[C@H]1CCc2nc(N)sc2C1` [pramipexole], for which the terminal elimination half-life result is reported as “about 12 hours” (elderly volunteers) and “about 8 hours” (healthy volunteers). Under “females versus males”, the “lower clearance rate in females than males” value is 30%. Moreover, the “absolute bioavailability (BA)” value (in vivo) was “greater than 90%”.
